Experimental data: US8455214B2, “Methods for determining chemotherapeutic agents targeting alpha-glucan pathways and uses thereof” (priority 2009, dated 2013)

Tested on: Mtb ΔRv3032 mutant
Assay type: cell-based

## OCC1=C[C@@H](N[C@H]2C[C@H](CO)[C@@H](O[C@H]3O[C@@H](CO)[C@H](O)[C@@H](O)[C@@H]3O)[C@H](O)[C@H]2O)[C@H](O)[C@@H](O)[C@@H]1O [VA, Validamycin A]
Over 7 days, cultures inoculated at 5×10^6 CFU/ml
  killing (reduction of viability, CFU): 3 log
ΔRv3032 mutant with TreS from an integrative single-copy plasmid
  effect of over-expression of the putative target TreS: marked resistance
